Reference: PubChem BioAssay (NCI)
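How tested: cells in 96-well plates exposed to compound for 48 hours at five concentrations. Here, GI50 denotes the concentration required for 50% inhibition of growth. TGI marks complete inhibition of growth.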

Legend:
Experiment in all cases: DTP human tumour cell line panel, 48 h
[1] = test system: A549 NSCLC
[2] = test system: CAKI-1 renal
[3] = test system: LOX IMVI melanoma
[4] = test system: NCI-H522 lung
[5] = test system: RXF 393 renal
[6] = test system: SF-295 CNS
[7] = test system: UO-31 renal
[8] = test system: MDA-MB-231 breast
[9] = test system: MDA-MB-435
[10] = test system: NCI/ADR-RES ovarian
[11] = test system: U251 CNS

SMILES | TGI [1] | TGI [2] | TGI [3] | TGI [4] | TGI [5] | TGI [6] | TGI [7] | TGI [8] | TGI [9] | TGI [10] | TGI [11] | GI50 [1] | GI50 [2] | GI50 [3] | GI50 [9] | GI50 [11]
COc1cc(CC2C(=O)OCC2[C@@H](OC(C)=O)c2ccc3c(c2)OCO3)c(Br)c(OC)c1OC (some centres not stated) | > 100 µM | > 100 µM | > 100 µM | > 100 µM | > 100 µM | > 100 µM | > 100 µM | – | – | – | – | – | – | – | – | –
Cc1ccc(S(=O)(=O)NCCCSCCO)cc1 | > 100 µM | – | > 100 µM | > 100 µM | > 100 µM | > 100 µM | > 100 µM | > 100 µM | > 100 µM | > 100 µM | > 100 µM | – | – | – | – | –
COc1cc(/C=C/c2ccc(S(N)(=O)=O)cc2)cc(OC)c1 | 71.9 µM | 47.3 µM | 34 µM | – | 34.1 µM | 55.5 µM | 52 µM | 46.6 µM | 40 µM | 89.7 µM | > 100 µM | 20.7 µM | 19 µM | 18.2 µM | 18.7 µM | 17.1 µM
O=C(NCCC1CN(S(=O)(=O)C(F)(F)F)c2ccccc21)OCc1ccccc1 (configuration not stated) | > 100 µM | > 100 µM | – | > 100 µM | > 100 µM | > 100 µM | > 100 µM | > 100 µM | > 100 µM | > 100 µM | > 100 µM | – | – | – | – | –
CCOP(=O)(OCC)C(C)(CC)/N=C(\N)NC#N (configuration not stated) | > 100 µM | – | > 100 µM | – | > 100 µM | > 100 µM | > 100 µM | > 100 µM | > 100 µM | > 100 µM | > 100 µM | – | – | – | – | –
COc1cc(C(=O)N(C(=O)N2CCCCC2)c2ccccc2)cc(OC)c1OC | > 100 µM | > 100 µM | > 100 µM | – | – | > 100 µM | > 100 µM | > 100 µM | > 100 µM | > 100 µM | > 100 µM | – | – | – | – | –
COc1ccc(OC)c(-c2cc(=O)c3cc4c(cc3[nH]2)OCO4)c1 | > 71.3 µM | > 65.7 µM | > 100 µM | 9.26 µM | 16.5 µM | > 27.6 µM | > 100 µM | – | – | – | > 77.9 µM | – | – | – | – | –
CC(C)(CO)NC(=O)c1cccs1 | > 100 µM | > 100 µM | > 100 µM | > 100 µM | – | > 100 µM | > 100 µM | > 100 µM | > 100 µM | > 100 µM | > 100 µM | – | – | – | – | –
CC1(C)OC2[C@@H](CO[C@@]3([C@H]4OC(C)(C)O[C@@H]4CO)OC(C)(C)O[C@@H]23)O1 (some centres not stated) | > 100 µM | – | > 100 µM | > 100 µM | > 100 µM | > 100 µM | > 100 µM | > 100 µM | > 100 µM | > 100 µM | > 100 µM | – | – | – | – | –
COc1cc2c(cc1OC)-c1[nH]c3ccc([N+](=O)[O-])cc3c1CC(=O)N2 | > 100 µM | > 26.9 µM | > 100 µM | – | 4.82 µM | > 87.8 µM | > 23.8 µM | > 100 µM | > 100 µM | > 100 µM | > 100 µM | – | – | – | – | –
COC(=O)C1=C(C)NC2=C(C(=O)c3ccccc32)C1c1cn[nH]c1-c1ccccc1 (configuration not stated) | > 100 µM | > 100 µM | – | > 100 µM | > 100 µM | > 100 µM | > 100 µM | > 100 µM | > 100 µM | > 100 µM | > 100 µM | – | – | – | – | –
O=C1[C@H](O)[C@@H]2CCC[C@@]23CCCN13 | > 100 µM | > 100 µM | > 100 µM | > 100 µM | > 100 µM | > 100 µM | > 100 µM | – | > 100 µM | > 100 µM | > 100 µM | – | – | – | – | –
O=C1NC2OC(CO)C(O)C(O)C2O1 (configuration not stated) | > 100 µM | > 100 µM | > 100 µM | > 100 µM | – | > 100 µM | > 100 µM | – | – | – | > 100 µM | – | – | – | – | –
CCCCc1c2c(nc3c1CCCC3=O)CCCC2 | > 100 µM | – | > 100 µM | > 100 µM | – | > 100 µM | > 100 µM | – | – | – | > 100 µM | – | – | – | – | –
CCN(CCN(CC)C(=O)NC)C(=O)NC | > 100 µM | – | > 100 µM | > 100 µM | > 100 µM | > 100 µM | > 100 µM | > 100 µM | – | > 100 µM | > 100 µM | – | – | – | – | –
COc1ccc(C=NCCCN=Cc2ccc(OC)cc2O)c(O)c1 | > 100 µM | – | – | > 100 µM | > 100 µM | 54.5 µM | > 100 µM | > 100 µM | > 100 µM | – | > 100 µM | – | – | – | – | –
O=C1C(=Cc2ccc([N+](=O)[O-])o2)C(=O)N(CCc2ccccc2)S(=O)(=O)N1CCc1ccccc1 | > 100 µM | – | 35 µM | 34.5 µM | 34.1 µM | > 100 µM | > 100 µM | – | – | – | > 100 µM | – | – | – | – | –
COCC1N=C(c2cc(OC)c(OC)c(OC)c2-c2cc3c(cc2[C@@H](C)O)OCO3)O[C@H]1c1ccccc1 (some centres not stated) | > 100 µM | > 100 µM | > 100 µM | > 100 µM | > 91.6 µM | > 100 µM | > 100 µM | – | – | > 95.7 µM | > 100 µM | – | – | – | – | –
COc1ccc(/C=C(\C2=NC(=O)CS2)c2nc3ccccc3[nH]2)cc1 | > 100 µM | > 100 µM | – | 49.7 µM | 6.81 µM | > 100 µM | > 100 µM | – | – | – | > 100 µM | – | – | – | – | –
COc1cc(CC(=O)c2cc3c(cc2-c2ccccc2)OCO3)cc(OC)c1OC | > 100 µM | – | > 100 µM | > 100 µM | > 100 µM | > 100 µM | > 100 µM | – | – | – | > 100 µM | – | – | – | – | –
CC(=O)Nc1ccc(C(=O)n2[nH]c(C)c(/C=C3\C(=O)C=Cc4ccccc43)c2=O)cc1 | > 100 µM | > 100 µM | > 100 µM | > 100 µM | – | > 100 µM | > 100 µM | – | – | – | – | – | – | – | – | –
Cn1c(=O)oc2cc(C(=S)N3CCCCC3)ccc21 | – | > 100 µM | > 100 µM | – | > 100 µM | > 100 µM | – | > 100 µM | > 100 µM | > 100 µM | > 100 µM | – | – | – | – | –
Cc1cc(=O)[nH]c(NNC(C#N)c2ccc(N(C)C)cc2)n1 (configuration not stated) | > 100 µM | > 100 µM | > 100 µM | > 100 µM | > 100 µM | > 100 µM | > 100 µM | – | – | – | > 100 µM | – | – | – | – | –
Brc1ccc(C[N+]23CN4CN(CN(C4)C2)C3)cc1 | > 100 µM | – | 48 µM | 32.1 µM | 34.6 µM | > 100 µM | > 100 µM | – | – | – | > 100 µM | – | – | – | – | –
